# Target: T1, human orexin-2 (hOX2) receptors (Homo sapiens, UniProt O43614)
# T1 construct: expressed in transfected cells
# T1 sequence (O43614 1-444): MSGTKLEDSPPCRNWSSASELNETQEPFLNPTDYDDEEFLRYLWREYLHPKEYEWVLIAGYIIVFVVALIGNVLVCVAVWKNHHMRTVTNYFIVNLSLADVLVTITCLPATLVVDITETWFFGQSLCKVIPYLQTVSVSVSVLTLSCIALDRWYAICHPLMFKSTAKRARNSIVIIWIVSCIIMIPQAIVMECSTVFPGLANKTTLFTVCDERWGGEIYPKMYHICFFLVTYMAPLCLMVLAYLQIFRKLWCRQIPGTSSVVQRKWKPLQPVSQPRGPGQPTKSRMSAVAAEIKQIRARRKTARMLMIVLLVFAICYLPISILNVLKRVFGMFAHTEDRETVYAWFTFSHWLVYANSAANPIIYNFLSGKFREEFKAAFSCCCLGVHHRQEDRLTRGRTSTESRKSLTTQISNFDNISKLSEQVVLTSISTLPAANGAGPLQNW
# Experiment: Intracellular Ca2+ mobilization assay (FLIPR), orexin-A as agonist
# Format: cell-based
# Details: CHO(dHFr-) cells stably expressing hOX2; antagonist applied 25 min before EC80 of orexin-A; Kb=IC50/(1+[A]/EC50); read-out: Kb (μM) OX2R (human)
# Description: Intracellular Ca^2+ Mobilization Assay
# The Chinese Hamster Ovary (dHFr-) mutant cell line stably expressing human orexin-1 (hOX1) or human orexin-2 (hOX2) receptors were maintained in Dulbecco's Modified Eagle Medium (1X) with GlutaMax™ 1, 4500 mg/L D-Glucose and Sodium Pyruvate (Catalog No. 31966-021, Invitrogen, Carlsbad, Calif.), 5% dialyzed fetal calf serum (Catalog No. 26400-044), 100 μg/ml penicillin and 100 μg/ml streptomycin. The cells were seeded at 5×10^4 cells/well in the poly-D-lysine treated, 96-well, black/clear-bottomed plates (Catalog No. BD356640, BD Biosciences, Palo Alto, Calif.). 24 h later, the cells were loaded for 1 hr at 37° C. with 4 μM Flou-4 acetoxymethyl ester (Catalog No. F-14202, Molecular Probes, Eugene, Oreg.) in FLIPR buffer (1×HBSS, 20 mM HEPES, 2.5 mM Probenecid). Hanks' Balanced Salt Solution (HBSS) (10X) (catalog No. 14065-049) and HEPES (1M) (catalog No. 15630-056) were purchased from Invitrogen, Carlsbad, Calif. Probenecid (250 mM) (catalog No. P8761) was from Sigma, Buchs, Switzerland. The cells were washed five times with FLIPR buffer to remove excess dye and intracellular calcium mobilization, [Ca^2+] were measured using a Fluorometric Imaging Plate Reader (FLIPR-96, Molecular Devices, Menlo Park, Calif.) as described previously (Malherbe et al., Mol. Pharmacol., 64, 823-832, 2003). Orexin A (catalog No.1455, Toris Cookson Ltd, Bristol, UK) was used as agonist. Orexin A ([…] stock solution in DMSO) was diluted in FLIPR buffer +0.1% BSA. The EC50 and EC80 values of orexin-A were measured daily from standard agonist concentration-response curves in CHO(dHFr-)-OX1R and —OX2R cell lines. All compounds were dissolved in 100% DMSO. Inhibition curves were determined by addition of 11 concentrations (0.0001-10 μM) of inhibitory compounds and using EC80 value of orexin-A as agonist (a concentration which gave 80% of max agonist response, determined daily). The antagonists were applied 25 min (incubation at 37° C.) before the application of the agonist. Responses were measured as peak increase in fluorescence minus basal, normalized to the maximal stimulatory effect induced by EC80 value of orexin-A or orexin-B. Inhibition curves were fitted according to the Hill equation: y=100/(1+(x/1C50)^nH), where nH=slope factor using Excel-fit 4 software (Microsoft). Kb values were calculated according to the following equation Kb=IC50/(1+[A]/EC50) where A is the concentration of agonist added which is very close to agonist EC80 value, and IC50 and EC50 values were derived from the antagonist inhibition and orexin-A or B agonist curves, respectively.
row,Kb [µM],Compound
1,0.0014,"O=C(CN(c1ccc(Cl)cc1)S(=O)(=O)c1cccc(Cl)c1)N1CCCC1c1ccc(F)cc1 (centres unmarked) [Example 18, 3-Chloro-N-(4-chloro-phenyl)-N-{2-[2-(4-fluoro-phenyl)-pyrrolidin-1-yl]-2-oxo-ethyl}-benzenesulfonamide]"
2,0.0005,"Cc1cccc(S(=O)(=O)N(CC(=O)N2CCCC2c2ccc(F)cc2)c2ccc(Cl)cc2)c1 (centres unmarked) [Example 24, N-(4-Chloro-phenyl)-N-{2-[2-(4-fluoro-phenyl)-pyrrolidin-1-yl]-2-oxo-ethyl}-3-methyl-benzenesulfonamide]"
3,0.0019,"Cc1ccc(S(=O)(=O)N(CC(=O)N2CCCC2c2ccccc2)c2ccc(Cl)cc2)cc1 (centres unmarked) [Example 5, N-(4-Chloro-phenyl)-4-methyl-N-[2-oxo-2-(2-phenyl-pyrrolidin-1-yl)-ethyl]-benzenesulfonamide]"
4,0.0018,"O=C(CN(c1ccc(Cl)cc1)S(=O)(=O)c1cccc(F)c1)N1CCCC1c1ccc(F)cc1 (centres unmarked) [Example 15, N-(4-Chloro-phenyl)-3-fluoro-N-{2-[2-(4-fluoro-phenyl)-pyrrolidin-1-yl]-2-oxo-ethyl}-benzenesulfonamide]"
5,0.0005,"Cc1ccccc1S(=O)(=O)N(CC(=O)N1CCCC1c1ccccc1)c1ccc(Cl)cc1 (centres unmarked) [Example 3, N-(4-Chloro-phenyl)-2-methyl-N-[2-oxo-2-(2-phenyl-pyrrolidin-1-yl)-ethyl]-benzenesulfonamide]"
6,0.0012,"O=C(CN(c1ccc(Cl)cc1)S(=O)(=O)c1ccccc1Cl)N1CCCC1c1ccccc1 (centres unmarked) [Example 12, 2-Chloro-N-(4-chloro-phenyl)-N-[2-oxo-2-(2-phenyl-pyrrolidin-1-yl)-ethyl]-benzenesulfonamide]"
7,0.0049,"COc1ccc(S(=O)(=O)N(CC(=O)N2CCCC2c2ccccc2)c2ccc(Cl)cc2)cc1 (centres unmarked) [Example 2, N-(4-Chloro-phenyl)-4-methoxy-N-[2-oxo-2-(2-phenyl-pyrrolidin-1-yl)-ethyl]-benzenesulfonamide]"
8,0.0077,"COc1ccc(S(=O)(=O)N(CC(=O)N2CCCC2c2ccccc2)c2cccc(F)c2)cc1 (centres unmarked) [Example 36, N-(3-Fluoro-phenyl)-4-methoxy-N-[2-oxo-2-(2-phenyl-pyrrolidin-1-yl)-ethyl]-benzenesulfonamide]"
9,0.0013,"Cc1ccc(S(=O)(=O)N(CC(=O)N2CCCC2c2ccc(F)cc2)c2ccc(Cl)cc2)cc1 (centres unmarked) [Example 23, N-(4-Chloro-phenyl)-N-{2-[2-(4-fluoro-phenyl)-pyrrolidin-1-yl]-2-oxo-ethyl}-4-methyl-benzenesulfonamide]"
10,0.0017,"COc1ccc(S(=O)(=O)N(CC(=O)N2CCCC2c2ccc(F)cc2)c2ccc(Cl)cc2)cc1 (centres unmarked) [Example 22, N-(4-Chloro-phenyl)-N-{2-[2-(4-fluoro-phenyl)-pyrrolidin-1-yl]-2-oxo-ethyl}-4-methoxy-benzenesulfonamide]"
11,0.0006,"Cc1ccccc1S(=O)(=O)N(CC(=O)N1CCCC1c1ccc(F)cc1)c1ccc(Cl)cc1 (centres unmarked) [Example 20, N-(4-Chloro-phenyl)-N-{2-[2-(4-fluoro-phenyl)-pyrrolidin-1-yl]-2-oxo-ethyl}-2-methyl-benzenesulfonamide]"
12,0.0005,"O=C(CN(c1ccc(Cl)cc1)S(=O)(=O)c1ccc(F)cc1)N1CCCC1c1ccc(F)cc1 (centres unmarked) [Example 40, N-(4-Chloro-phenyl)-4-fluoro-N-{2-[2-(4-fluoro-phenyl)-pyrrolidin-1-yl]-2-oxo-ethyl}-benzenesulfonamide]"
13,0.0007,"O=C(CN(c1ccc(Cl)cc1)S(=O)(=O)c1ccccc1Cl)N1CCCC1c1ccc(F)cc1 (centres unmarked) [Example 7, 2-Chloro-N-(4-chloro-phenyl)-N-{2-[2-(4-fluoro-phenyl)-pyrrolidin-1-yl]-2-oxo-ethyl}-benzenesulfonamide]"
14,0.0006,"COc1cccc(S(=O)(=O)N(CC(=O)N2CCCC2c2ccc(F)cc2)c2ccc(Cl)cc2)c1 (centres unmarked) [Example 21, N-(4-Chloro-phenyl)-N-{2-[2-(4-fluoro-phenyl)-pyrrolidin-1-yl]-2-oxo-ethyl}-3-methoxy-benzenesulfonamide]"
15,0.0005,"Cc1cccc(S(=O)(=O)N(CC(=O)N2CCCC2c2ccccc2)c2ccc(Cl)cc2)c1 (centres unmarked) [Example 11, N-(4-Chloro-phenyl)-3-methyl-N-[2-oxo-2-(2-phenyl-pyrrolidin-1-yl)-ethyl]-benzenesulfonamide]"
16,0.0022,"O=C(CN(c1ccc(Cl)cc1)S(=O)(=O)c1ccc(Cl)cc1)N1CCCC1c1ccccc1 (centres unmarked) [Example 8, 4-Chloro-N-(4-chloro-phenyl)-N-[2-oxo-2-(2-phenyl-pyrrolidin-1-yl)-ethyl]-benzenesulfonamide]"
17,0.0026,"COc1ccc(N(CC(=O)N2CCCC2c2ccc(F)cc2)S(=O)(=O)c2ccc(OC)cc2)cc1 (centres unmarked) [Example 41, N-{2-[2-(4-Fluoro-phenyl)-pyrrolidin-1-yl]-2-oxo-ethyl}-4-methoxy-N-(4-methoxy-phenyl)-benzenesulfonamide]"
18,0.0064,"COc1ccc(S(=O)(=O)N(CC(=O)N2CCCC2c2ccc(F)cc2)c2cccc(F)c2)cc1 (centres unmarked) [Example 31, N-(3-Fluoro-phenyl)-N-{2-[2-(4-fluoro-phenyl)-pyrrolidin-1-yl]-2-oxo-ethyl}-4-methoxy-benzenesulfonamide]"
19,0.0003,"COc1ccccc1S(=O)(=O)N(CC(=O)N1CCCC1c1ccc(F)cc1)c1ccc(Cl)cc1 (centres unmarked) [Example 52, N-(4-Chloro-phenyl)-N-{2-[2-(4-fluoro-phenyl)-pyrrolidin-1-yl]-2-oxo-ethyl}-2-methoxy-benzenesulfonamide]"
20,0.0077,"COc1ccc(S(=O)(=O)N(CC(=O)N2CCCC2c2ccccc2)c2cccc(C(F)(F)F)c2)cc1 (centres unmarked) [Example 47, 4-Methoxy-N-[2-oxo-2-(2-phenyl-pyrrolidin-1-yl)-ethyl]-N-(3-trifluoromethyl-phenyl)-benzenesulfonamide]"
21,0.003,"COc1ccc(N(CC(=O)N2CCCC2c2ccccc2)S(=O)(=O)c2ccc(OC)cc2)cc1 (centres unmarked) [Example 27, 4-Methoxy-N-(4-methoxy-phenyl)-N-[2-oxo-2-(2-phenyl-pyrrolidin-1-yl)-ethyl]-benzenesulfonamide]"
22,0.0042,"COc1ccc(S(=O)(=O)N(CC(=O)N2CCCC2c2ccccc2)c2ccc(Cl)cc2)cc1 (centres unmarked) [Example 6, N-(4-Chloro-phenyl)-4-methoxy-N-[2-oxo-2-(2-phenyl-pyrrolidin-1-yl)-ethyl]-benzenesulfonamide]"
23,0.0079,"COc1ccc(S(=O)(=O)N(CC(=O)N2CCCC2c2ccc(F)cc2)c2ccc(F)cc2)cc1 (centres unmarked) [Example 45, N-(4-Fluoro-phenyl)-N-{2-[2-(4-fluoro-phenyl)-pyrrolidin-1-yl]-2-oxo-ethyl}-4-methoxy-benzenesulfonamide]"
24,0.0096,"COc1ccc(S(=O)(=O)N(CC(=O)N2CCCC2c2ccccc2)c2ccc(F)cc2)cc1 (centres unmarked) [Example 38, N-(4-Fluoro-phenyl)-4-methoxy-N-[2-oxo-2-(2-phenyl-pyrrolidin-1-yl)-ethyl]-benzenesulfonamide]"
25,0.005,"COc1ccc(S(=O)(=O)N(CC(=O)N2CCCC2c2ccc(F)cc2)c2ccccc2OC)cc1 (centres unmarked) [Example 26, N-{2-[2-(4-Fluoro-phenyl)-pyrrolidin-1-yl]-2-oxo-ethyl}-4-methoxy-N-(2-methoxy-phenyl)-benzenesulfonamide]"
26,0.0009,"O=C(CN(c1ccc(Cl)cc1)S(=O)(=O)c1ccccc1F)N1CCCC1c1ccc(F)cc1 (centres unmarked) [Example 16, N-(4-Chloro-phenyl)-2-fluoro-N-{2-[2-(4-fluoro-phenyl)-pyrrolidin-1-yl]-2-oxo-ethyl}-benzenesulfonamide]"
